Patent publication US6737383B1, “Herbicidal oxadiazolidines” (priority 1999, dated 2004)

Key:
bedstraw = test: Test B pre/postemergence bedstraw; format: in vivo, Galium aparine
Procedure, shortened: (§1)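 Herbicidal effect was estimated by eye on a ten-point control scale after plants spent twelve to sixteen days in a greenhouse following soil or foliar treatment. Foliar sprays targeted plants at one to four leaves; all doses were formulated in a non-phytotoxic solvent with surfactant.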

blackgrass = test: Test B pre/postemergence blackgrass; format: in vivo, Alopecurus myosuroides
Procedure, shortened: as §1

surinam grass = test: Test B pre/postemergence surinam grass; format: in vivo, Brachiaria decumbens
Procedure, shortened: as §1

cocklebur = test: Test B pre/postemergence cocklebur; format: in vivo, Xanthium strumarium
Procedure, shortened: as §1

corn = test: Test B pre/postemergence corn; format: in vivo, Zea mays
Procedure, shortened: as §1

crabgrass = test: Test B pre/postemergence crabgrass; format: in vivo, Digitaria sanguinalis
Procedure, shortened: as §1

giant foxtail = test: Test B pre/postemergence giant foxtail; format: in vivo, Setaria faberii
Procedure, shortened: as §1

morningglory = test: Test B pre/postemergence morningglory; format: in vivo, Ipomoea hederacea
Procedure, shortened: as §1

pigweed = test: Test B pre/postemergence pigweed; format: in vivo, Amaranthus retroflexus
Procedure, shortened: as §1

rape = test: Test B pre/postemergence rape; format: in vivo, Brassica napus
Procedure, shortened: as §1

soybean = test: Test B pre/postemergence soybean; format: in vivo, Glycine max
Procedure, shortened: as §1

sugar beet = test: Test B pre/postemergence sugar beet; format: in vivo, Beta vulgaris
Procedure, shortened: as §1

velvetleaf = test: Test B pre/postemergence velvetleaf; format: in vivo, Abutilon theophrasti
Procedure, shortened: as §1

wheat = test: Test B pre/postemergence wheat; format: in vivo, Triticum aestivum
Procedure, shortened: as §1

wild oat = test: Test B pre/postemergence wild oat; format: in vivo, Avena fatua
Procedure, shortened: as §1

purple nutsedge = test: Test B pre/postemergence purple nutsedge; format: in vivo, Cyperus rotundus
Procedure, shortened: as §1

[1] = Postemergence, Rate 62 g/ha, scale of 0 to 10, 0 is no effect, 10 is complete control
[2] = Postemergence, Rate 125 g/ha, scale 0 to 10, 0 is no effect, 10 is complete control
[3] = Postemergence, Rate 500 g/ha, scale 0 to 10, 0 is no effect, 10 is complete control
[4] = Preemergence, Rate 62 g/ha, scale of 0 to 10 where 0 is no effect and 10 is complete control
[5] = Preemergence, Rate 125 g/ha, scale 0 to 10, 0 is no effect, 10 is complete control
[6] = Preemergence, Rate 500 g/ha, scale 0 to 10, 0 is no effect, 10 is complete control
[7] = Rate 250 g/ha, Postemergence, scale of 0 to 10 where 0 is no effect and 10 is complete control
[8] = Preemergence, Rate 500 g/ha, scale of 0 to 10 where 0 is no effect and 10 is complete control

CC(C)N(C(=O)n1oc(=O)n(CCCCF)c1=O)c1ccc(F)cc1F [Compound 522]
Bedstraw plant response rating (bedstraw; [1]): 0 | Bedstraw plant response rating (bedstraw; [2]): 0 | Plant response rating, Bedstraw (bedstraw; [3]): 10 | Plant response rating, Bedstraw (bedstraw; [4]): 10 | Bedstraw plant response rating (bedstraw; [5]): 10 | Bedstraw plant response rating (0 to 10 scale) (bedstraw; Preemergence, Rate 250 g/ha): 10 | Bedstraw plant response rating (bedstraw; [6]): 10 | Plant response rating, Bedstraw (bedstraw; [7]): 9 | Blackgrass plant response rating (blackgrass; [1]): 8 | Blackgrass plant response rating (blackgrass; [2]): 8 | Plant response rating, Blackgrass (blackgrass; [3]): 8 | Plant response rating, Blackgrass (blackgrass; [4]): 4 | Blackgrass plant response rating (blackgrass; [5]): 8 | Blackgrass plant response rating (0 to 10 scale) (blackgrass; Preemergence, Rate 250 g/ha): 9 | Blackgrass plant response rating (blackgrass; [8]): 9 | Plant response rating, Blackgrass (blackgrass; [7]): 8 | B. signalgrass plant response rating (surinam grass; [1]): 0 | B. signalgrass plant response rating (surinam grass; [2]): 5 | Plant response rating, B. signalgrass (surinam grass; [3]): 7 | Plant response rating, B. signalgrass (surinam grass; [4]): 10 | B. signalgrass plant response rating (surinam grass; [5]): 9 | B. signalgrass plant response rating (0 to 10 scale, 0 is no effect, 10 is complete control) (surinam grass; Preemergence, Rate 250 g/ha): 9 | B. signalgrass plant response rating (surinam grass; [6]): 9 | Plant response rating, B. signalgrass (surinam grass; [7]): 7 | Cocklebur plant response rating (cocklebur; [1]): 0 | Cocklebur plant response rating (cocklebur; [2]): 3 | Plant response rating, Cocklebur (cocklebur; [3]): 3 | Plant response rating, Cocklebur (cocklebur; [4]): 0 | Cocklebur plant response rating (cocklebur; [5]): 0 | Cocklebur plant response rating (0 to 10 scale) (cocklebur; Preemergence, Rate 250 g/ha): 0 | Plant response rating, Cocklebur (cocklebur; [7]): 3 | Corn plant response rating (corn; [1]): 0 | Corn plant response rating (corn; [2]): 3 | Plant response rating, Corn (corn; [3]): 5 | Plant response rating, Corn (corn; [4]): 2 | Corn plant response rating (corn; [5]): 7 | Corn plant response rating (0 to 10 scale) (corn; Preemergence, Rate 250 g/ha): 7 | Corn plant response rating (corn; [8]): 9 | Plant response rating, Corn (corn; [7]): 3 | Crabgrass plant response rating (crabgrass; [1]): 8 | Crabgrass plant response rating (crabgrass; [2]): 8 | Plant response rating, Crabgrass (crabgrass; [3]): 9 | Plant response rating, Crabgrass (crabgrass; [4]): 9 | Crabgrass plant response rating (crabgrass; [5]): 10 | Crabgrass plant response rating (0 to 10 scale) (crabgrass; Preemergence, Rate 250 g/ha): 10 | Crabgrass plant response rating (crabgrass; [8]): 10 | Plant response rating, Crabgrass (crabgrass; [7]): 8 | Giant foxtail plant response rating (giant foxtail; [1]): 8 | Giant foxtail plant response rating (giant foxtail; [2]): 8 | Plant response rating, Giant foxtail (giant foxtail; [3]): 9 | Plant response rating, Giant foxtail (giant foxtail; [4]): 10 | Giant foxtail plant response rating (giant foxtail; [5]): 10 | Giant foxtail plant response rating (0 to 10 scale) (giant foxtail; Preemergence, Rate 250 g/ha): 10 | Giant foxtail plant response rating (giant foxtail; [8]): 10 | Morningglory plant response rating (morningglory; [1]): 3 | Morningglory plant response rating (morningglory; [2]): 4 | Plant response rating, Morningglory (morningglory; [3]): 5 | Plant response rating, Morningglory (morningglory; [4]): 0 | Morningglory plant response rating (morningglory; [5]): 2 | Morningglory plant response rating (0 to 10 scale) (morningglory; Preemergence, Rate 250 g/ha): 2 | Morningglory plant response rating (morningglory; [8]): 4 | Plant response rating, Morningglory (morningglory; [7]): 4 | Redroot pigweed plant response rating (pigweed; [1]): 0 | Redroot pigweed plant response rating (pigweed; [2]): 4 | Plant response rating, Redroot pigweed (pigweed; [3]): 9 | Plant response rating, Redroot pigweed (pigweed; [4]): 10 | Redroot pigweed plant response rating (pigweed; [5]): 10 | Redroot pigweed plant response rating (0 to 10 scale) (pigweed; Preemergence, Rate 250 g/ha): 10 | Redroot pigweed plant response rating (pigweed; [8]): 10 | Plant response rating, Redroot pigweed (pigweed; [7]): 4 | Rape plant response rating (rape; [1]): 0 | Rape plant response rating (rape; [2]): 0 | Plant response rating, Rape (rape; [3]): 9 | Plant response rating, Rape (rape; [4]): 0 | Rape plant response rating (rape; [5]): 2 | Rape plant response rating (0 to 10 scale) (rape; Preemergence, Rate 250 g/ha): 4 | Rape plant response rating (rape; [8]): 6 | Plant response rating, Rape (rape; [7]): 0 | Soybean plant response rating (soybean; [1]): 4 | Soybean plant response rating (soybean; [2]): 6 | Plant response rating, Soybean (soybean; [3]): 6 | Plant response rating, Soybean (soybean; [4]): 0 | Soybean plant response rating (soybean; [5]): 0 | Soybean plant response rating (0 to 10 scale) (soybean; Preemergence, Rate 250 g/ha): 0 | Soybean plant response rating (soybean; [8]): 10 | Sugarbeets plant response rating (sugar beet; [1]): 6 | Sugarbeets plant response rating (sugar beet; [2]): 6 | Plant response rating, Sugarbeets (sugar beet; [3]): 6 | Plant response rating, Sugarbeets (sugar beet; [4]): 5 | Sugarbeets plant response rating (sugar beet; [5]): 5 | Sugarbeets plant response rating (0 to 10 scale) (sugar beet; Preemergence, Rate 250 g/ha): 5 | Sugarbeets plant response rating (sugar beet; [8]): 7 | Plant response rating, Sugarbeets (sugar beet; [7]): 6 | Velvetleaf plant response rating (velvetleaf; [1]): 2 | Velvetleaf plant response rating (velvetleaf; [2]): 5 | Plant response rating, Velvetleaf (velvetleaf; [3]): 7 | Plant response rating, Velvetleaf (velvetleaf; [4]): 2 | Velvetleaf plant response rating (velvetleaf; [5]): 6 | Velvetleaf plant response rating (0 to 10 scale) (velvetleaf; Preemergence, Rate 250 g/ha): 8 | Velvetleaf plant response rating (velvetleaf; [8]): 9 | Plant response rating, Velvetleaf (velvetleaf; [7]): 7 | Wheat plant response rating (wheat; [1]): 0 | Wheat plant response rating (wheat; [2]): 0 | Plant response rating, Wheat (wheat; [3]): 5 | Plant response rating, Wheat (wheat; [4]): 0 | Wheat plant response rating (wheat; [5]): 0 | Wheat plant response rating (0 to 10 scale) (wheat; Preemergence, Rate 250 g/ha): 2 | Wheat plant response rating (wheat; [8]): 8 | Plant response rating, Wheat (wheat; [7]): 5 | Wild oats plant response rating (wild oat; [1]): 0 | Wild oats plant response rating (wild oat; [2]): 4 | Plant response rating, Wild oats (wild oat; [3]): 7 | Plant response rating, Wild oats (wild oat; [4]): 10 | Wild oats plant response rating (wild oat; [5]): 2 | Wild oats plant response rating (0 to 10 scale) (wild oat; Preemergence, Rate 250 g/ha): 4 | Wild oats plant response rating (wild oat; [8]): 9 | Plant response rating, Wild oats (wild oat; [7]): 7 | Nutsedge plant response rating (purple nutsedge; [1]): 0 | Nutsedge plant response rating (purple nutsedge; [2]): 0 | Plant response rating, Nutsedge (purple nutsedge; [3]): 0 | Plant response rating, Nutsedge (purple nutsedge; [4]): 0 | Nutsedge plant response rating (purple nutsedge; [5]): 9 | Nutsedge plant response rating (0 to 10 scale) (purple nutsedge; Preemergence, Rate 250 g/ha): 10 | Nutsedge plant response rating (purple nutsedge; [8]): 10 | Plant response rating, Nutsedge (purple nutsedge; [7]): 0
